Assays:
Format in all cases: in vivo
[1] = test system: barnyardgrass (Echinochloa crus-galli); experiment: Test G Pre-Emergence Protocol; conditions: evaluated after 13 days
Protocol: (§1) Seeds of corn (Zea mays), giant foxtail (Setaria faberi), barnyardgrass (Echinochloa crus-galli), ivy-leaved morning glory (Ipomoea hederacea), redroot pigweed (Amaranthus retroflexus) and velvetleaf (Abutilon theophrasti) were sown in standard soil in pots. After cultivation for one day under controlled conditions in a glasshouse (at 24/16° C., day/night; 14 hours light; 65% humidity), the plants were sprayed with an aqueous spray solution derived from the formulation of the technical active ingredient in acetone/water (50:50) solution containing 0.5% Tween 20 (polyoxyethylene sorbitan monolaurate, CAS RN 9005-64-5) to give a final dose of 15.625, 62.5 or 250 g/ha of test compound.
(§2) The test plants were then grown on under controlled conditions in a glasshouse (at 24/16° C., day/night; 14 hours light; 65% humidity) and watered twice daily. After 13 days the test was evaluated (100=total damage to plant; 0=no damage to plant). A dash (-) means no test result.

[2] = test system: corn (Zea mays); experiment: Test G Pre-Emergence Protocol; conditions: evaluated after 13 days
Protocol: as §1, §2

[3] = test system: giant foxtail (Setaria faberi); experiment: Test G Pre-Emergence Protocol; conditions: evaluated after 13 days
Protocol: as §1, §2

[4] = test system: ivy-leaved morning glory (Ipomoea hederacea); experiment: Test G Pre-Emergence Protocol; conditions: evaluated after 13 days
Protocol: as §1, §2

[5] = test system: redroot pigweed (Amaranthus retroflexus); experiment: Test G Pre-Emergence Protocol; conditions: evaluated after 13 days
Protocol: as §1, §2

[6] = test system: velvetleaf (Abutilon theophrasti); experiment: Test G Pre-Emergence Protocol; conditions: evaluated after 13 days
Protocol: as §1, §2

[7] = test system: barnyardgrass (Echinochloa crus-galli); experiment: Test G Post-Emergence Protocol
Protocol: as §1, with “8 days” for “one day”
as §2

[8] = test system: corn (Zea mays); experiment: Test G Post-Emergence Protocol
Protocol: as §1, with “8 days” for “one day”
as §2

[9] = test system: giant foxtail (Setaria faberi); experiment: Test G Post-Emergence Protocol
Protocol: as §1, with “8 days” for “one day”
as §2

[10] = test system: ivy-leaved morning glory (Ipomoea hederacea); experiment: Test G Post-Emergence Protocol
Protocol: as §1, with “8 days” for “one day”
as §2

[11] = test system: redroot pigweed (Amaranthus retroflexus); experiment: Test G Post-Emergence Protocol
Protocol: as §1, with “8 days” for “one day”
as §2

[12] = test system: velvetleaf (Abutilon theophrasti); experiment: Test G Post-Emergence Protocol
Protocol: as §1, with “8 days” for “one day”
as §2

[13] = 62.5 g ai/ha, 100=total damage to plant, 0=no damage to plant
[14] = 15.625 g ai/ha, evaluated after 13 days (100=total damage to plant; 0=no damage to plant)
[15] = 62.5 g ai/ha, evaluated after 13 days
[16] = 250 g ai/ha, evaluated after 13 days
[17] = 62.5 g ai/ha, evaluated after 13 days, 100=total damage to plant, 0=no damage to plant
[18] = 250 g ai/ha, evaluated after 13 days, 100=total damage to plant, 0=no damage to plant

Cc1ccc(NC(=O)C2C(=O)N(C)CC2c2ccc(C(F)(F)F)cc2)c([N+](=O)[O-])c1 (racemic) [Compound 1592]
Barnyardgrass damage rating (100=total damage to plant; 0=no damage to plant) ([1]; 15.625 g ai/ha): 0 | plant damage rating, Barnyardgrass [1, 13]: 10 | Barnyardgrass damage rating (100=total damage to plant; 0=no damage to plant) ([1]; 250 g ai/ha): 50 | Corn damage rating (100=total damage to plant; 0=no damage to plant) ([2]; 15.625 g ai/ha): 0 | plant damage rating, Corn [2, 13]: 0 | Corn damage rating (100=total damage to plant; 0=no damage to plant) ([2]; 250 g ai/ha): 0 | Foxtail, Giant damage rating (100=total damage to plant; 0=no damage to plant) ([3]; 15.625 g ai/ha): 0 | plant damage rating, Foxtail, Giant [3, 13]: 20 | Foxtail, Giant damage rating (100=total damage to plant; 0=no damage to plant) ([3]; 250 g ai/ha): 70 | Morning-glory, Ivy-leaved damage rating (100=total damage to plant; 0=no damage to plant) ([4]; 15.625 g ai/ha): 10 | plant damage rating, Morningglory, Ivy-leaved [4, 13]: 0 | Morningglory, Ivy-leaved damage rating (100=total damage to plant; 0=no damage to plant) ([4]; 250 g ai/ha): 10 | Pigweed, Redroot damage rating (100=total damage to plant; 0=no damage to plant) ([5]; 15.625 g ai/ha): 0 | plant damage rating, Pigweed, Redroot [5, 13]: 0 | Pigweed, Redroot damage rating (100=total damage to plant; 0=no damage to plant) ([5]; 250 g ai/ha): 30 | Velvetleaf damage rating (100=total damage to plant; 0=no damage to plant) ([6]; 15.625 g ai/ha): 0 | plant damage rating, Velvetleaf [6, 13]: 0 | Velvetleaf damage rating (100=total damage to plant; 0=no damage to plant) ([6]; 250 g ai/ha): 0 | Barnyardgrass damage rating [7, 14]: 0 | Barnyardgrass damage rating (100=total damage to plant; 0=no damage to plant) [7, 15]: 10 | damage to plant, Barnyardgrass (100=total damage to plant; 0=no damage to plant) [7, 16]: 30 | Corn damage rating [8, 14]: 0 | Corn damage rating (100=total damage to plant; 0=no damage to plant) [8, 15]: 0 | damage to plant, Corn (100=total damage to plant; 0=no damage to plant) [8, 16]: 10 | Foxtail, Giant damage rating [9, 14]: 0 | Foxtail, Giant damage rating (100=total damage to plant; 0=no damage to plant) [9, 15]: 60 | damage to plant, Foxtail, Giant (100=total damage to plant; 0=no damage to plant) [9, 16]: 70 | Morningglory, Ivy-leaved damage rating [10, 14]: 0 | Morningglory, Ivy-leaved damage rating (100=total damage to plant; 0=no damage to plant) [10, 15]: 40 | damage to plant, Morningglory, Ivy-leaved (100=total damage to plant; 0=no damage to plant) [10, 16]: 60 | Pigweed, Redroot damage rating [11, 14]: 0 | Pigweed, Redroot damage rating (100=total damage to plant; 0=no damage to plant) [11, 15]: 0 | damage to plant, Pigweed, Redroot (100=total damage to plant; 0=no damage to plant) [11, 16]: 10 | Velvetleaf damage rating [12, 14]: 0 | Velvetleaf damage rating (100=total damage to plant; 0=no damage to plant) [12, 15]: 10 | damage to plant, Velvetleaf (100=total damage to plant; 0=no damage to plant) [12, 16]: 10

CN1C[C@H](c2ccc(C(F)(F)F)cc2)[C@@H](C(=O)Nc2c[n+]([O-])ccc2C(F)(F)F)C1=O (racemic) [Compound 1732]
Barnyardgrass damage rating (100=total damage to plant; 0=no damage to plant) ([1]; 15.625 g ai/ha): 0 | Barnyardgrass damage rating [1, 13]: 0 | Barnyardgrass damage rating (100=total damage to plant; 0=no damage to plant) ([1]; 250 g ai/ha): 0 | Corn damage rating (100=total damage to plant; 0=no damage to plant) ([2]; 15.625 g ai/ha): 0 | Corn damage rating [2, 13]: 0 | Corn damage rating (100=total damage to plant; 0=no damage to plant) ([2]; 250 g ai/ha): 0 | Foxtail, Giant damage rating (100=total damage to plant; 0=no damage to plant) ([3]; 15.625 g ai/ha): 0 | Foxtail, Giant damage rating [3, 13]: 20 | Foxtail, Giant damage rating (100=total damage to plant; 0=no damage to plant) ([3]; 250 g ai/ha): 50 | Morningglory, Ivy-leaved damage rating (100=total damage to plant; 0=no damage to plant) ([4]; 15.625 g ai/ha): 0 | Morningglory, Ivy-leaved damage rating [4, 13]: 0 | Morningglory, Ivy-leaved damage rating (100=total damage to plant; 0=no damage to plant) ([4]; 250 g ai/ha): 0 | Pigweed, Redroot damage rating (100=total damage to plant; 0=no damage to plant) ([5]; 15.625 g ai/ha): 0 | Pigweed, Redroot damage rating [5, 13]: 0 | Pigweed, Redroot damage rating (100=total damage to plant; 0=no damage to plant) ([5]; 250 g ai/ha): 10 | Velvetleaf damage rating (100=total damage to plant; 0=no damage to plant) ([6]; 15.625 g ai/ha): 0 | Velvetleaf damage rating [6, 13]: 0 | Velvetleaf damage rating (100=total damage to plant; 0=no damage to plant) ([6]; 250 g ai/ha): 10 | Barnyardgrass damage rating [7, 14]: 0 | Barnyardgrass damage rating [7, 17]: 0 | Barnyardgrass damage rating [7, 18]: 20 | Corn damage rating [8, 14]: 0 | Corn damage rating [8, 17]: 0 | Corn damage rating [8, 18]: 0 | Foxtail, Giant damage rating [9, 14]: 0 | Foxtail, Giant damage rating [9, 17]: 10 | Foxtail, Giant damage rating [9, 18]: 50 | Morningglory, Ivy-leaved damage rating [10, 14]: 0 | Morningglory, Ivy-leaved damage rating [10, 17]: 0 | Morningglory, Ivy-leaved damage rating [10, 18]: 0 | Pigweed, Redroot damage rating [11, 14]: 0 | Pigweed, Redroot damage rating [11, 17]: 10 | Pigweed, Redroot damage rating [11, 18]: 20 | Velvetleaf damage rating [12, 14]: 0 | Velvetleaf damage rating [12, 17]: 10 | Velvetleaf damage rating [12, 18]: 0

CN1C[C@@H](c2ccc(C(F)(F)F)cc2)[C@H](C(=O)Nc2cccnc2F)C1=O [Compound 1768]
Barnyardgrass damage rating (100=total damage to plant; 0=no damage to plant) ([1]; 15.625 g ai/ha): 0 | Barnyardgrass damage rating [1, 13]: 0 | Barnyardgrass damage rating (100=total damage to plant; 0=no damage to plant) ([1]; 250 g ai/ha): 0 | Corn damage rating (100=total damage to plant; 0=no damage to plant) ([2]; 15.625 g ai/ha): 0 | Corn damage rating [2, 13]: 0 | Corn damage rating (100=total damage to plant; 0=no damage to plant) ([2]; 250 g ai/ha): 0 | Foxtail, Giant damage rating (100=total damage to plant; 0=no damage to plant) ([3]; 15.625 g ai/ha): 0 | Foxtail, Giant damage rating [3, 13]: 0 | Foxtail, Giant damage rating (100=total damage to plant; 0=no damage to plant) ([3]; 250 g ai/ha): 0 | Morningglory, Ivy-leaved damage rating (100=total damage to plant; 0=no damage to plant) ([4]; 15.625 g ai/ha): 0 | Morningglory, Ivy-leaved damage rating [4, 13]: 0 | Morningglory, Ivy-leaved damage rating (100=total damage to plant; 0=no damage to plant) ([4]; 250 g ai/ha): 0 | Pigweed, Redroot damage rating (100=total damage to plant; 0=no damage to plant) ([5]; 15.625 g ai/ha): 0 | Pigweed, Redroot damage rating [5, 13]: 0 | Pigweed, Redroot damage rating (100=total damage to plant; 0=no damage to plant) ([5]; 250 g ai/ha): 0 | Velvetleaf damage rating (100=total damage to plant; 0=no damage to plant) ([6]; 15.625 g ai/ha): 0 | Velvetleaf damage rating [6, 13]: 0 | Velvetleaf damage rating (100=total damage to plant; 0=no damage to plant) ([6]; 250 g ai/ha): 0 | Barnyardgrass damage rating [7, 14]: 0 | Barnyardgrass damage rating [7, 17]: 0 | Barnyardgrass damage rating [7, 18]: 0 | Corn damage rating [8, 14]: 0 | Corn damage rating [8, 17]: 0 | Corn damage rating [8, 18]: 0 | Foxtail, Giant damage rating [9, 14]: 0 | Foxtail, Giant damage rating [9, 17]: 0 | Foxtail, Giant damage rating [9, 18]: 0 | Morningglory, Ivy-leaved damage rating [10, 14]: 0 | Morningglory, Ivy-leaved damage rating [10, 17]: 0 | Morningglory, Ivy-leaved damage rating [10, 18]: 0 | Pigweed, Redroot damage rating [11, 14]: 0 | Pigweed, Redroot damage rating [11, 17]: 0 | Pigweed, Redroot damage rating [11, 18]: 0 | Velvetleaf damage rating [12, 14]: 0 | Velvetleaf damage rating [12, 17]: 0 | Velvetleaf damage rating [12, 18]: 0

— patent US12077503B2, “Substituted cyclic amides and their use as herbicides” (FMC CORPORATION, priority 2015, dated 2024)
